Earlier results, collected in patent publication US20030108955A1, “Dioxin derivatives and method of measurement therewith” (priority 2000, published 2003).

Details: general knowledge

In the case of `O=C(O)CCCC[C@@H]1SC[C@@H]2NC(=O)N[C@@H]21` [biotin], the water solubility is listed as “insoluble to water”.
